Measured values: patent US10668168B2, “Method for removing weakly bound functional moieties from cell targeting conjugates” (priority 2015, dated 2020)

Tested on: NBD-4Py-Lx-trastuzumab conjugate
Test: Stripping efficiency of S- and N-donors: released NBD label from trastuzumab conjugate
Format: physicochemical
Conditions: agent 10 mM final, 37 °C, 30 minutes stripping
Description: The percentage of released NBD label (excitation and emission wavelength of 485 nm and 535 nm, respectively) was determined spectrophotometrically. The conjugation mixture was precipitated with 2 volume equivalents acetonitrile followed by centrifugation of the formed suspension (5 minutes, 14K rpm). By measuring the fluorescence of the supernatant, the percentage of released NBD label was determined.
NBD-4Py-Lx-Cl (133 microliters, 5 mM in 20 mM NaCl, 20 equiv.) was added to a solution of trastuzumab, used in its commercial formulation, (238 microliters, 21 mg/ml) and HEPES buffer (12.3 microliters, pH 7.47, 20 mM final concentration). The mixture was placed in a THERMOMIXER® at 37° C. for 4 hours, followed by purification using a prewashed PD10 column which was eluted with 0.9% NaCl. The purified conjugate was incubated with PBS or the S and N-donors as listed above (10 mM final concentration) in a THERMOMIXER® at 37° C. for 30 minutes. With size exclusion chromatography conjugation was clearly observed. Furthermore no aggregation was observed. The NBD/mAb ratio of all the conjugates were between 4.0 and 4.2.
The percentage of the released NBD label was determined as described in Example B.

| SMILES | Released label (%) |
| --- | --- |
| N[C@@H](Cc1c[nH]cn1)C(=O)O [Histidine] | 5.9 |
| N#C[S-].[K+] [KSCN, potassium thiocyanate] | 35.9 |
| N[C@@H](CS)C(=O)O [L-cysteine] | 36.4 |
| CSCC[C@H](NC(C)=O)C(=O)O [N-acetyl-1-methionine] | 12.2 |
| O=S([O-])([O-])=S.[Na+].[Na+] [NaSTS, sodium thiosulfate] | 52.4 |
